Where a chain is given by its changes, count along the chain named.
What was measured:
[1] = biological target: T1, wild-type VLCAD (Mus musculus, UniProt P50544); assay: Hepa 1 to 6 cells expressing FLAG-tagged wild-type VLCAD exposed to GSNO; format: cell-based
T1 construct: 3xFLAG (C); host or cells: Hepa 1 to 6 cells
T1 sequence (P50544 42-656): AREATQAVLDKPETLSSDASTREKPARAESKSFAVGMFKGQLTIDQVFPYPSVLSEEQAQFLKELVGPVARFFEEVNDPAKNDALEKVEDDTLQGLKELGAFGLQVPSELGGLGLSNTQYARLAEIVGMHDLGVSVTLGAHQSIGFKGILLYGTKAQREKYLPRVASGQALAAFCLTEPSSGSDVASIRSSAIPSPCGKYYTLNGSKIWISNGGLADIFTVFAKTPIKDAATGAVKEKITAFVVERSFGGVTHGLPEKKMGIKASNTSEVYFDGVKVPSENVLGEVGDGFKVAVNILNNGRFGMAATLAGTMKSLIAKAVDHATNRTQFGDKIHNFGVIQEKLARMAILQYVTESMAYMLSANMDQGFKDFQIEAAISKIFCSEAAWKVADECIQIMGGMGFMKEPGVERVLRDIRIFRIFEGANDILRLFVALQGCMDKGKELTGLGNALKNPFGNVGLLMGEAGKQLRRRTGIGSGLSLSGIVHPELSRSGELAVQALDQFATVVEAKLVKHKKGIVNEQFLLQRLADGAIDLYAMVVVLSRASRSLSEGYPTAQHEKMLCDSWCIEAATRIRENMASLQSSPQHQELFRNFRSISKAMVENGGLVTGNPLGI
Experimental: (§1) Liver homogenate (final concentration of 0.03 μg/μl) or cell lysate (final concentration of 0.09 μg/μl) in 100 mM potassium phosphate buffer (pH 7.2) containing 0.2% Triton X-100 and 0.1 mM EDTA was mixed with […] ferricenium ion, and the reaction was initiated by the addition of palmitoyl-CoA (the final volume of the assay was 130 μl). […] At least nine concentrations of palmitoyl-CoA, ranging from 0.015 to 2 mM, were used for the experimental determination of the apparent Vmax and KM of VLCAD for each animal. […] A unit of enzyme activity is defined as the amount of enzyme that causes the reduction of […] of ferricenium per minute at room temperature (ε=4.3 mM^−1 cm^−1 at 300 nm) (Izai et al. (1992) J. Biol. Chem., 267:1027-1033). […] The measurement of specific activity of VLCAD in liver homogenates (FIG. 2H) and cell lysates (FIG. 4) was performed in the presence of 0.25 and 0.125 mM palmitoyl-CoA, respectively.
Hepa 1 to 6 cells were grown in Dulbecco's modified Eagle's medium (DMEM) containing 10% fetal bovine serum, 2 mM glutamine, penicillin (100 U/ml), and streptomycin ([…]) at 37° C. in air with 5% CO2. Cells were plated at a density of 5×10^4 cells/cm^2 and cultured under normal conditions for 24 hours. Cells were transfected with FLAG®-tagged wild-type VLCAD or FLAG®-tagged C238A VLCAD with Lipofectamine® 2000 reagent (Life Technologies) according to the protocol provided by the manufacturer. Forty-eight hours after transfection, the growth medium was replaced with serum-free DMEM, and […] freshly prepared GSNO was added for 30 minutes, after which the cells were extensively washed with PBS. Cell lysates were obtained immediately or 60, 120, and 240 minutes after the removal of GSNO. The samples were protected from UV light exposure. Lysates were assayed for protein concentration, and equal amounts of protein per sample were used for organic mercury-assisted capture.

[2] = biological target: T2, C238A VLCAD (Mus musculus, UniProt P50544, C238A); assay: Hepa 1 to 6 cells expressing FLAG-tagged C238A VLCAD exposed to GSNO; format: cell-based; conditions: same GSNO treatment
T2 construct: 3xFLAG (C); host or cells: Hepa 1 to 6 cells
T2 sequence (P50544 42-656 C238A): T1 sequence (P50544 42-656) with C197A
Experimental: as §1
The QuikChange® Lightning Site-Directed Mutagenesis Kit (Agilent Technologies) was used to introduce single amino acid mutations in complementary DNA encoding VLCAD. A cysteine-to-alanine mutant at amino acid position 238 was generated with Ex-Mm01013-M14 (hereinafter referred to as pVLCAD-3×FLAG®), a plasmid encoding mouse VLCAD fused to three FLAG® tags in the C-terminal region of the protein (GeneCopoeia), as a template. […]

[3] = biological target: T3, VLCAD (Mus musculus, UniProt P50544); assay: VLCAD activity assay (ferricenium) in liver homogenates from injected ob/ob mice
T3 sequence (P50544 42-656): T1 sequence (P50544 42-656)

[4] = 60, 120, 240 minutes after removal of GSNO and washing

- abundance of S-nitrosylated VLCAD after removal of GSNO [1, 4]: declined over time
- enzymatic-specific activity after removal of GSNO [1, 4]: declined over time
- VLCAD-specific activity ([1]; GSNO treatment, 0.125 mM palmitoyl-CoA): significantly higher
- basal activity of C238A VLCAD mutant in response to GSNO [2]: did not change
- acyl dehydrogenase-mediated oxidation of palmitoyl-CoA ([3]; GSNO-treated ob/ob mouse liver): increase
- apparent KM in PBS-injected ob/ob homogenates relative to wild-type and GSNO-injected ob/ob mice ([3]; liver homogenates): more than fivefold higher
Structure (SMILES): N[C@@H](CCC(=O)N[C@@H](CSN=O)C(=O)NCC(=O)O)C(=O)O [GSNO, S-nitrosoglutathione]

Reference: patent US10434079B2, “Compositions and methods for the treatment of fatty acid metabolism disorders” (The Children's Hospital of Philadelphia, priority 2013, dated 2019)
